Measurements reported in article PMC5298231, “The Malaria Parasite's Lactate Transporter PfFNT Is the Target of Antiplasmodial Compounds Identified in Whole Cell Phenotypic Screens” (PLoS Pathogens, 2017).
Read-outs that look alike come from different tables or passages of the source.

System: erythrocytes infected with 3D7 trophozoites
Type: cell-based, Plasmodium falciparum

## COc1ccc2c(c1)OC(O)(C(F)(F)C(F)(F)F)CC2=O (centres unmarked) [MMV007839]
3hr
  NADP+, Average: -0.3346
  Ornithine, Average: -0.1015
  Orotate, Average: -1.466
  Orotidine 5-Phosphate, Average: -1.489
  Orotidine, Average: -1.057
  PAEF, Average: -1.307
  PD, Average: 0.2119
  PDAV, Average: 0.3685
  PE, Average: 0.9141
  PEE, Average: -0.2135
  PHF, Average: 0.05129
  PPVQ, Average: -0.3492
  PVNF, Average: -0.8559
  PVQ, Average: 0.3164
  PVQA, Average: -1.408
  Pantothenate, Average: -0.2954
  Phenylalanine, Average: -0.1326
  Phosphoenolpyruvate, Average: 0.2604
  Pipecolate, Average: 0.1041
  Proline, Average: -0.09895
  Pyridoxine, Average: -0.07403
  Pyruvate, Average: 1.858
  Ribose-5-Phosphate, Average: 0.8813
  S-Adenosyl-L-homocysteine, Average: -0.314
  SDGLA, Average: -0.3844
  SFGD, Average: -0.2955
  Sedoheptulose-1/7-Phosphate, Average: 0.2199
  Serine, Average: 0.166
  Succinate Semialdehyde, Average: -0.7119
  Succinate, Average: -0.2462
  TNVK, Average: -1.745
  Threonine, Average: 0.01502
  Tryptophan, Average: -0.2359
  Tyrosine, Average: -0.01653
  UDP, Average: -0.7159
  UDP-N-acetyl-D-glucosamine, Average: 0.05247
  UDP-glucose, Average: -0.07837
  UMP, Average: -0.2624
  Uracil, Average: -0.6081
  Valine, Average: -0.194
  Xanthine, Average: -0.464
  dADP, Average: -1.193
  dATP, Average: -0.03116
  dCDP, Average: 0.3315
  dGMP, Average: 0.1661
  dTMP, Average: 0.1316
  dTTP, Average: -0.08156
  dUMP, Average: 1.365
  myo-Inositol, Average: -0.258
  sn-Glycerol 3-Phosphate, Average: 1.559
  sn-glycero-3-Phospho-1-inositol, Average: 0.1698
6hr
  1-3 (2-3)-Bisphopshateglycerate, Average: 0.3636
  2-Hydroxyglutarate, Average: -0.3824
  2-Ketoglutarate, Average: -0.4713
  3-Phoshoglycerate, Average: 0.02516
  3-Phospho-serine, Average: -0.6364
  4-Aminobutanoate, Average: 1.092
  5-Phosphoribosyl-Pyrophosphate, Average: 0.556
  6-Phosphogluconate, Average: -0.3794
  ADP, Average: -0.3027
  AMP, Average: -0.04039
  ATLS, Average: -0.1601
  ATP, Average: -0.3608
  Acetyl-CoA, Average: -0.9886
  Acetyl-L-alanine, Average: -0.3969
  Adenine, Average: -0.7079
  Arginine, Average: 0.2024
  Asparagine, Average: 0.205
  Aspartate, Average: -0.08675
  CDP, Average: -0.2824
  CDP-ethanolamine, Average: -0.09908
  CMP, Average: 0.2839
  CTP, Average: -0.5655
  Cholesteryl sulfate, Average: -0.1903
  Citrate, Average: -0.1627
  CoA, Average: -0.6499
  Cyclic AMP, Average: -1.349
  Cytidine, Average: 0.1751
  DALT, Average: 0.7209
  DEVG, Average: -0.06216
  DGLA, Average: 0.8365
  DLS, Average: -0.1236
  Deoxycytidine, Average: 1.626
  Dihydroorotate, Average: -1.004
  ESFG, Average: 0.5044
  EVGG, Average: -0.2203
  Erythrose 4-Phosphate, Average: -0.7036
  FAD, Average: -0.616
  FMN, Average: -0.6137
  Farnesyl diphosphate, Average: -0.2783
  Folate, Average: -0.4942
  Fructose-1-6-Bisphosphate, Average: 0.3974
  Fructose-6-Phosphate, Average: -0.1081
  GDP, Average: -0.8963
  GDP-mannose, Average: -1.076
  GMP, Average: -0.8795
  GTP, Average: -0.6956
  Geranylgeranyl pyrophosphate, Average: -0.7121
  Glucono-1-4-Lactone, Average: 2.219
  Glucose-6-Phosphate, Average: -0.5083
  Glutamate, Average: -0.02563
  Glutamine, Average: 1.089
  Glutathione Disulfide, Average: -0.1925
  Glutathione, Average: -0.4326
  Glyceraldehyde 3-Phosphate, Average: -1.148
  Glycerone Phosphate, Average: -0.3794
  HLD, Average: 0.5581
  HVDD, Average: 0.02571
  Histidine, Average: 1.263
  Homoserine, Average: 0.6347
  Hydroxy-L-proline, Average: -0.1227
  Hypoxanthine, Average: 0.2056
  IDP, Average: 0.2522
  IMP, Average: -0.2109
  Inosine, Average: 0.5174
  Isoleucine, Average: 0.1143
  LD, Average: 0.1248
  Lactate, Average: 2.505
  Leucine, Average: 0.06585
  Lysine, Average: 1.1316
  Malate, Average: -0.236
  Mannitol, Average: -0.1109
  Methionine, Average: -0.2224
  Myristic acid, Average: -0.7184
  N-Acetyl-glutamate, Average: -1.091
  N-Carbamoyl-L-Aspartate, Average: -1.386
  NAD+, Average: 0.1336
  NADH, Average: -2.783
  NADP+, Average: -0.3285
  Ornithine, Average: -0.4177
  Orotate, Average: -1.6355
  Orotidine 5-Phosphate, Average: -1.249
  Orotidine, Average: -0.6749
  PAEF, Average: 0.8061
  PD, Average: 1.197
  PDAV, Average: 1.2
  PE, Average: 1.699
  PEE, Average: 1.042
  PHF, Average: 0.9826
  PPVQ, Average: -0.2514
  PVNF, Average: 0.6194
  PVQ, Average: 1.502
  PVQA, Average: -0.1116
  Pantothenate, Average: -0.4384
  Phenylalanine, Average: 0.1437
  Phosphoenolpyruvate, Average: 0.09862
  Pipecolate, Average: 1.035
  Proline, Average: 0.2232
  Pyridoxine, Average: 0.219
  Pyruvate, Average: 2.1785
  Ribose-5-Phosphate, Average: 0.5462
  S-Adenosyl-L-homocysteine, Average: -0.1116
  SDGLA, Average: -0.7918
  SFGD, Average: -0.1482
  Sedoheptulose-1/7-Phosphate, Average: 0.1885
  Serine, Average: 0.02139
  Succinate Semialdehyde, Average: -0.438
  Succinate, Average: 0.1816
  TNVK, Average: -0.1213
  Threonine, Average: 0.6908
  Tryptophan, Average: -0.04867
  Tyrosine, Average: 0.1841
  UDP, Average: -0.5016
  UDP-N-acetyl-D-glucosamine, Average: -0.184
  UDP-glucose, Average: 0.0071
  UMP, Average: -0.08541
  Uracil, Average: -0.6376
  Valine, Average: 0.1675
  Xanthine, Average: -0.5471
  dADP, Average: -0.4329
  dATP, Average: 0.01926
  dCDP, Average: 0.5589
  dGMP, Average: -0.355
  dTMP, Average: 0.4667
  dTTP, Average: 0.06317
  dUMP, Average: 1.053
  myo-Inositol, Average: -0.254
  sn-Glycerol 3-Phosphate, Average: 1.275
  sn-glycero-3-Phospho-1-inositol, Average: 0.1242
Av 1hr, 6 μM
  1-3 (2-3)-diphopshateglycerate log2 ratio (+MMV007839/-MMV007839): 0.8283
  2-Hydroxyglutarate log2 ratio (+MMV007839/-MMV007839): -0.2432
  2-Ketoglutarate log2 ratio (+MMV007839/-MMV007839): -0.436
  3-Phosho-D-glycerate log2 ratio (+MMV007839/-MMV007839): 0.004248
  3-Phospho-serine log2 ratio (+MMV007839/-MMV007839): -0.2778
  4-Aminobutanoate log2 ratio (+MMV007839/-MMV007839): 1.193
  5-Phosphoribosyl-1-pyrophosphate log2 ratio (+MMV007839/-MMV007839): 0.3507
  ADP log2 ratio (+MMV007839/-MMV007839): -0.09347
  AMP log2 ratio (+MMV007839/-MMV007839): 0.1805
  ATLS log2 ratio (+MMV007839/-MMV007839): 0.06136
  ATP log2 ratio (+MMV007839/-MMV007839): -0.05715
  Acetyl-CoA log2 ratio (+MMV007839/-MMV007839): -0.4647
  Acetyl-L-alanine log2 ratio (+MMV007839/-MMV007839): 0.1907
  Adenine log2 ratio (+MMV007839/-MMV007839): -0.6208
  Arginine log2 ratio (+MMV007839/-MMV007839): 0.574
  Asparagine log2 ratio (+MMV007839/-MMV007839): 0.04802
  Aspartic Acid log2 ratio (+MMV007839/-MMV007839): 0.001665
  CDP log2 ratio (+MMV007839/-MMV007839): -0.01089
  CDP-ethanolamine log2 ratio (+MMV007839/-MMV007839): 0.2765
  CMP log2 ratio (+MMV007839/-MMV007839): 0.1684
  CTP log2 ratio (+MMV007839/-MMV007839): -0.2804
  Cholesteryl sulfate log2 ratio (+MMV007839/-MMV007839): -0.2972
  Citrate log2 ratio (+MMV007839/-MMV007839): -0.1229
  CoA log2 ratio (+MMV007839/-MMV007839): -0.4384
  Cyclic AMP log2 ratio (+MMV007839/-MMV007839): -0.8135
  Cytidine log2 ratio (+MMV007839/-MMV007839): -0.7749
  D-Glucono-1-4-lactone log2 ratio (+MMV007839/-MMV007839): 1.593
  DALT log2 ratio (+MMV007839/-MMV007839): -0.5028
  DEVG log2 ratio (+MMV007839/-MMV007839): 0.001555
  DGLA log2 ratio (+MMV007839/-MMV007839): -0.4525
  DLS log2 ratio (+MMV007839/-MMV007839): -0.423
  Deoxycytidine log2 ratio (+MMV007839/-MMV007839): 1.92
  Dihydroorotate log2 ratio (+MMV007839/-MMV007839): -0.5278
